Key:
[1] = tested on: Chinese sprangletop; test: Test Example 3: herbicidal effect by foliage application, Wagner pot (Table 18, symbol D); assay type: in vivo, chinese sprangletop (Leptochloa chinensis); settings: 320 g/ha
Summary of the method: (§1)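 Plants were sown in alluvial soil held under 0.1–0.5 cm standing water and grown 14 days in a greenhouse at 25–30 °C. An emulsifiable formulation, water-diluted to the set dose, was then sprayed onto the foliage, and effects were scored three weeks later using previously defined criteria.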

[2] = tested on: lambsquarters; test: Test Example 4: herbicidal effect by soil treatment (Table 19, symbol O); assay type: in vivo, lambsquarters (Chenopodium album); settings: amount of applied herbicide 320 g/ha
Summary of the method: (§2)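 Seeds were sown in sterilized diluvial soil and covered with about 1.5 cm of soil. An emulsion formulation diluted with water to a predetermined herbicide amount was sprayed evenly onto the soil surface. Plants grew in a greenhouse at 25° C. to 30° C., and the effect was scored three weeks after application using criteria from an earlier test.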

[3] = tested on: oval-leafed pondweed; test: Test Example 1: herbicidal activity, application before weed generation under submerged conditions (Table 16, symbol C); assay type: in vivo, oval-leafed pondweed (Monochoria vaginalis); settings: amount of applied herbicide 320 g/ha
Summary of the method: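 Alluvial soil was flooded to 4 cm depth, weed seeds were sown mixed and 2.5-leaf rice seedlings were transplanted. On sowing day, the compound's emulsion, diluted in water to a set dose, was applied to the water surface. Plants grew at 25–30 °C and were scored 0–5 after three weeks.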

[4] = tested on: velvetleaf; test: Test Example 5: herbicidal effect by foliage application, plastic box (Table 20, symbol M); assay type: in vivo, velvetleaf (Abutilon theophrasti); settings: for Herbicidal effect by foliage application, M: velvetleaf: amount of applied herbicide 320 g/ha
Summary of the method: (§3)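 Plants sown in sterilized diluvial soil and grown 14 days in a greenhouse at 25° C to 30° C, then sprayed on the foliage with the compound's emulsion diluted in water to a predetermined herbicide amount. Injury to weeds and crops scored three weeks after application on a visual rating scale.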

[5] = tested on: lambsquarters; test: Test Example 5: herbicidal effect by foliage application, plastic box (Table 20, symbol O); assay type: in vivo, lambsquarters (Chenopodium album); settings: for Herbicidal effect by foliage application, O: lambsquarters: amount of applied herbicide 320 g/ha
Summary of the method: as §3

[6] = tested on: velvetleaf; test: Test Example 4: herbicidal effect by soil treatment (Table 19, symbol M); assay type: in vivo, velvetleaf (Abutilon theophrasti); settings: amount of applied herbicide 320 g/ha
Summary of the method: as §2

[7] = tested on: windgrass; test: Test Example 5: herbicidal effect by foliage application, plastic box (Table 20, symbol L); assay type: in vivo, windgrass (Apera spica-venti); settings: for Herbicidal effect by foliage application, L: windgrass: amount of applied herbicide 320 g/ha
Summary of the method: as §3

[8] = tested on: Italian ryegrass; test: Test Example 5: herbicidal effect by foliage application, plastic box (Table 20, symbol K); assay type: in vivo, Italian ryegrass (Lolium multiflorum); settings: for Herbicidal effect by foliage application, K: Italian ryegrass: amount of applied herbicide 320 g/ha
Summary of the method: as §3

[9] = tested on: windgrass; test: Test Example 4: herbicidal effect by soil treatment (Table 19, symbol L); assay type: in vivo, windgrass (Apera spica-venti); settings: amount of applied herbicide 320 g/ha
Summary of the method: as §2

[10] = tested on: persian speedwell; test: Test Example 5: herbicidal effect by foliage application, plastic box (Table 20, symbol R); assay type: in vivo, Persian speedwell (Veronica persica); settings: for Herbicidal effect by foliage application, R: persian speedwell: amount of applied herbicide 320 g/ha
Summary of the method: as §3

[11] = tested on: persian speedwell; test: Test Example 4: herbicidal effect by soil treatment (Table 19, symbol R); assay type: in vivo, Persian speedwell (Veronica persica); settings: amount of applied herbicide 320 g/ha
Summary of the method: as §2

[12] = tested on: rice flat sedge; test: Test Example 3: herbicidal effect by foliage application, Wagner pot (Table 18, symbol E); assay type: in vivo, rice flat sedge (Cyperus iria); settings: 320 g/ha
Summary of the method: as §1

[13] = tested on: late watergrass; test: Test Example 2: herbicidal activity, application during weed generation under submerged conditions (Table 17, symbol A); assay type: in vivo, late watergrass (Echinochloa oryzicola); settings: AAH 320 g/ha; application during weed generation, submerged conditions
Summary of the method: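 3-wk visual-criteria score after one water-surface dose. Emulsion formulation, water-diluted to set rate; applied at 1–2 leaf stage; alluvial soil, 4 cm standing water; seeds co-sown; greenhouse 25–30° C.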

[14] = tested on: chickweed; test: Test Example 4: herbicidal effect by soil treatment (Table 19, symbol P); assay type: in vivo, common chickweed (Stellaria media); settings: amount of applied herbicide 320 g/ha
Summary of the method: as §2

[15] = tested on: barnyard grass; test: Test Example 3: herbicidal effect by foliage application, Wagner pot (Table 18, symbol H); assay type: in vivo, barnyard grass (Echinochloa crus-galli); settings: 320 g/ha
Summary of the method: as §1

[16] = tested on: southern crabgrass; test: Test Example 5: herbicidal effect by foliage application, plastic box (Table 20, symbol F); assay type: in vivo, southern crabgrass (Digitaria ciliaris); settings: for Herbicidal effect by foliage application, F: southern crabgrass: amount of applied herbicide 320 g/ha
Summary of the method: as §3

[17] = tested on: green foxtail; test: Test Example 4: herbicidal effect by soil treatment (Table 19, symbol G); assay type: in vivo, green foxtail (Setaria viridis); settings: amount of applied herbicide 320 g/ha
Summary of the method: as §2

[18] = 320 g/ha, foliage application after 14-day growth, evaluated three weeks after application
[19] = foliage application after 14-day growth, evaluated three weeks after application
[20] = foliage application, 320 g/ha, three weeks after application

SMILES	herbicidal effect on Chinese sprangletop (D) [1]	Herbicidal effect by soil treatment, O: lambsquarters [2]	Herbicidal effect, C: oval-leafed pondweed [3]	Herbicidal effect by soil treatment, M: velvetleaf [6]	Herbicidal effect by soil treatment, L: windgrass [9]	Herbicidal effect by soil treatment, R: persian speedwell [11]	herbicidal effect on rice flat sedge (E) [12]	herbicidal effect rating, A: late watergrass [13]	Herbicidal effect by soil treatment, P: chickweed [14]	herbicidal effect on barnyard grass (H) [15]	Herbicidal effect by soil treatment, G: green foxtail [17]	Herbicidal effect by foliage application, M: velvetleaf [4, 19]	Herbicidal effect by foliage application, O: lambsquarters [5, 19]	Herbicidal effect by foliage application, L: windgrass [7, 19]	Herbicidal effect by foliage application, K: Italian ryegrass [8, 19]	Herbicidal effect by foliage application, R: persian speedwell [10, 19]	Herbicidal effect by foliage application, F: southern crabgrass [16, 19]	O: lambsquarters, herbicidal effect grade [2]	M: velvetleaf, herbicidal effect grade [6]	L: windgrass, herbicidal effect grade [9]	further results
Cc1nn(C)c(=O)c(-c2c(-c3ccc(Cl)c(F)c3)sc3c(F)cccc23)c1O [4-054]	0 (Herbicidal rate of 5% or less (almost no effect))	1 (Herbicidal rate of 5% or more and less than 20%)	0 (Herbicidal rate of 5% or less (almost no effect))	0 (Herbicidal rate of 5% or less (almost no effect))	0 (Herbicidal rate of 5% or less (almost no effect))	4 (Herbicidal rate of 70% or more and less than 90%)	0 (Herbicidal rate of 5% or less (almost no effect))	2 (Herbicidal rate of 20% or more and less than 40%)	4 (Herbicidal rate of 70% or more and less than 90%)	2 (Herbicidal rate of 20% or more and less than 40%)	0 (Herbicidal rate of 5% or less (almost no effect))										herbicidal effect on M: velvetleaf (evaluation grade 0-5) [4, 18]: 5 (Herbicidal rate of 90% or more (almost completely withered)); herbicidal effect on O: lambsquarters (evaluation grade 0-5) [5, 18]: 3 (Herbicidal rate of 40% or more and less than 70%); herbicidal effect on L: windgrass (evaluation grade 0-5) [7, 18]: 0 (Herbicidal rate of 5% or less (almost no effect)); herbicidal effect on K: Italian ryegrass (evaluation grade 0-5) [8, 18]: 1 (Herbicidal rate of 5% or more and less than 20%); herbicidal effect on R: persian speedwell (evaluation grade 0-5) [10, 18]: 5 (Herbicidal rate of 90% or more (almost completely withered)); herbicidal effect on F: southern crabgrass (evaluation grade 0-5) [16, 18]: 2 (Herbicidal rate of 20% or more and less than 40%)
Cc1nn(C)c(=O)c(-c2c(-c3ccc(Cl)cc3)sc3c(C)cccc23)c1O [4-102]	3 (Herbicidal rate of 40% or more and less than 70%)	3 (Herbicidal rate of 40% or more and less than 70%)	0 (Herbicidal rate of 5% or less (almost no effect))	2 (Herbicidal rate of 20% or more and less than 40%)	0 (Herbicidal rate of 5% or less (almost no effect))	0 (Herbicidal rate of 5% or less (almost no effect))	5 (Herbicidal rate of 90% or more (almost completely withered))	2 (Herbicidal rate of 20% or more and less than 40%)	0 (Herbicidal rate of 5% or less (almost no effect))	1 (Herbicidal rate of 5% or more and less than 20%)	0 (Herbicidal rate of 5% or less (almost no effect))	5 (Herbicidal rate of 90% or more (almost completely withered))	4 (Herbicidal rate of 70% or more and less than 90%)	0 (Herbicidal rate of 5% or less (almost no effect))	4 (Herbicidal rate of 70% or more and less than 90%)	5 (Herbicidal rate of 90% or more (almost completely withered))	0 (Herbicidal rate of 5% or less (almost no effect))				
CCCC(=O)Oc1c(C)nn(C)c(=O)c1-c1c(-c2ccc(C#N)cc2)sc2cc(F)c(F)cc12 [5-026]	4 (Herbicidal rate of 70% or more and less than 90%)		0 (Herbicidal rate of 5% or less (almost no effect))				5 (Herbicidal rate of 90% or more (almost completely withered))	2 (Herbicidal rate of 20% or more and less than 40%)		3 (Herbicidal rate of 40% or more and less than 70%)		3 (Herbicidal rate of 40% or more and less than 70%)	4 (Herbicidal rate of 70% or more and less than 90%)	0 (Herbicidal rate of 5% or less (almost no effect))	0 (Herbicidal rate of 5% or less (almost no effect))	4 (Herbicidal rate of 70% or more and less than 90%)	0 (Herbicidal rate of 5% or less (almost no effect))	4 (Herbicidal rate of 70% or more and less than 90%)	0 (Herbicidal rate of 5% or less (almost no effect))	0 (Herbicidal rate of 5% or less (almost no effect))	R: persian speedwell, herbicidal effect grade [11]: 4 (Herbicidal rate of 70% or more and less than 90%); P: chickweed, herbicidal effect grade [14]: 0 (Herbicidal rate of 5% or less (almost no effect)); G: green foxtail, herbicidal effect grade [17]: 0 (Herbicidal rate of 5% or less (almost no effect))
CCCC(=O)Oc1c(C)nn(C)c(=O)c1-c1c(-c2ccc(F)cc2)sc2cc(C)c(C)cc12 [5-089]	3 (Herbicidal rate of 40% or more and less than 70%)		0 (Herbicidal rate of 5% or less (almost no effect))				3 (Herbicidal rate of 40% or more and less than 70%)	3 (Herbicidal rate of 40% or more and less than 70%)		1 (Herbicidal rate of 5% or more and less than 20%)								0 (Herbicidal rate of 5% or less (almost no effect))	0 (Herbicidal rate of 5% or less (almost no effect))	4 (Herbicidal rate of 70% or more and less than 90%)	herbicidal effect on velvetleaf (M) [4, 20]: 0 (Herbicidal rate of 5% or less (almost no effect)); herbicidal effect on lambsquarters (O) [5, 20]: 0 (Herbicidal rate of 5% or less (almost no effect)); herbicidal effect on windgrass (L) [7, 20]: 0 (Herbicidal rate of 5% or less (almost no effect)); herbicidal effect on Italian ryegrass (K) [8, 20]: 0 (Herbicidal rate of 5% or less (almost no effect)); herbicidal effect on persian speedwell (R) [10, 20]: 1 (Herbicidal rate of 5% or more and less than 20%); R: persian speedwell, herbicidal effect grade [11]: 0 (Herbicidal rate of 5% or less (almost no effect)); P: chickweed, herbicidal effect grade [14]: 0 (Herbicidal rate of 5% or less (almost no effect)); herbicidal effect on southern crabgrass (F) [16, 20]: 0 (Herbicidal rate of 5% or less (almost no effect)); G: green foxtail, herbicidal effect grade [17]: 0 (Herbicidal rate of 5% or less (almost no effect))

Source: US20230085307A1, “PYRIDAZINONE COMPOUND AND HERBICIDE” (NISSAN CHEMICAL CORPORATION, priority 2019, published 2023)
